Results from ChEMBL document CHEMBL5331123, “Potent Dual Inhibitors of Steroid Sulfatase and 17β-Hydroxysteroid Dehydrogenase Type 1 with a Suitable Pharmacokinetic Profile for In Vivo Proof-of-Principle Studies in an Endometriosis Mouse Model” (J Med Chem, 2023).
≈ marks a conversion by molar mass, not a printed value.

Legend:
Steryl-sulfatase [1] = molecular target: T1, Steryl-sulfatase (Homo sapiens, UniProt P08842); assay: Inhibition of human STS expressed in human T47D cells using [3H]E1S as substrate incubated for 1 hr followed by substrate addition measured after 24 hrs in presence of E1S by HPLC analysis; assay type: cell-based
T1 sequence (P08842 whole entry): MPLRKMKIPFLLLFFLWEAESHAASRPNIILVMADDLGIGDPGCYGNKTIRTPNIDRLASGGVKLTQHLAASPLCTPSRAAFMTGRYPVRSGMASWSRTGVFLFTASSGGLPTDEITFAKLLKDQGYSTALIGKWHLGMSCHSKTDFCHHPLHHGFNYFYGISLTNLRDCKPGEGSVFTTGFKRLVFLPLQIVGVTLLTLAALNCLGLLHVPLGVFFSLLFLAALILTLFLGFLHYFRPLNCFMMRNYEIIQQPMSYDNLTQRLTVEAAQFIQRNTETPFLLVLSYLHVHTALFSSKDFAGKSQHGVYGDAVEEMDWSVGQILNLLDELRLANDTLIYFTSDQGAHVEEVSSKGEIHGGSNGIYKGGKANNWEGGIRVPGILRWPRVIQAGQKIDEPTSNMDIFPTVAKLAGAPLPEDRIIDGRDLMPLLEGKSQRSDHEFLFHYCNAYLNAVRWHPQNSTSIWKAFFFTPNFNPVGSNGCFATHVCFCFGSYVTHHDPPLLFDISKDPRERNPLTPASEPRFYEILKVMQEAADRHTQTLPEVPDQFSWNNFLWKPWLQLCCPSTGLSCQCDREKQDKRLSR

Homo sapiens [2] = organism: Homo sapiens; assay: Selectivity ratio of IC50 for human 17beta-HSD2 to IC50 for human 17beta-HSD1
[3] = Metabolic stability in human liver S9 fraction assessed as half life measured upto 60 mins in presence of NADPH by LC-MS/MS analysis; assay type: ADME, subcellular; conditions: for half-life: liver S9 fraction
[4] = Metabolic stability in mouse liver S9 fraction assessed as half life measured upto 60 mins in presence of NADPH by LC-MS/MS analysis; assay type: ADME, subcellular; conditions: for half-life: liver S9 fraction
Homo sapiens [5] = organism: Homo sapiens; assay: Selectivity ratio of IC50 for human placental microsomal fraction 17beta-HSD2 to IC50 for human placental microsomal fraction 17beta-HSD1
[6] = molecular target: T2, 17-beta-hydroxysteroid dehydrogenase type 1 (Homo sapiens, UniProt P14061); assay: Inhibition of human 17beta-HSD1 expressed in human T47D cells using [3H]E1 as substrate incubated for 1 hr followed by substrate addition measured after 40 mins in presence of E1 by HPLC analysis; assay type: cell-based
T2 sequence (P14061 whole entry): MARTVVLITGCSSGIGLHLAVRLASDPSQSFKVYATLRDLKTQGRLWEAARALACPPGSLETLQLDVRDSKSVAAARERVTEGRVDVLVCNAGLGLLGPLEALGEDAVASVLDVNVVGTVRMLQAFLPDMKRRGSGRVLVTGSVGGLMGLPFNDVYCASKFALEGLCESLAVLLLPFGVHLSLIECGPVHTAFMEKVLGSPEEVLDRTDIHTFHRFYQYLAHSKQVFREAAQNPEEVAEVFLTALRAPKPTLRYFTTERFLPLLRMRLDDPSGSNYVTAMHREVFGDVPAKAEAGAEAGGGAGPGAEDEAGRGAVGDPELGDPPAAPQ

[7] = molecular target: T2, 17-beta-hydroxysteroid dehydrogenase type 1; assay: Inhibition of human placental cytosolic fraction 17beta-HSD1 using [3H]E1 as substrate measured after 10 mins in presence of NADH by HPLC analysis; assay type: tissue-based, Placenta
[8] = molecular target: T3, 17-beta-hydroxysteroid dehydrogenase type 2 (Homo sapiens, UniProt P37059); assay: Inhibition of human placental microsomal fraction 17beta-HSD2 using [3H]E2 as substrate measured after 20 mins in presence of NAD+ by HPLC analysis; assay type: microsomes, Placenta, Microsome
T3 sequence (P37059 whole entry): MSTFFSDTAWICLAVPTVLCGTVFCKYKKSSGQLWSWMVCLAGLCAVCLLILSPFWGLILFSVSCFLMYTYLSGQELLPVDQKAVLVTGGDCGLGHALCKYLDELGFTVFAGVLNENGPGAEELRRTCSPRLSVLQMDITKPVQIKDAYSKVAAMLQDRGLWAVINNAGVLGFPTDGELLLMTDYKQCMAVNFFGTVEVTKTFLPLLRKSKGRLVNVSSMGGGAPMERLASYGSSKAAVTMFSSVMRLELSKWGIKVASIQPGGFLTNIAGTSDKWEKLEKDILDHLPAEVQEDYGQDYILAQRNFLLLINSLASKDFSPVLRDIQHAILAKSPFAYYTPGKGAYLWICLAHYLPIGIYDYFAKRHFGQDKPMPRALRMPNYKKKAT

[9] = molecular target: T4, Steryl-sulfatase (Homo sapiens) (UniProt P08842); assay: Inhibition of human STS expressed in human T47D cells at 1 uM using [3H]E1S as substrate incubated for 1 hr followed by substrate addition measured after 24 hrs in presence of E1S by HPLC analysis relative to control; assay type: cell-based; conditions: time 25.0 hrs
T4 sequence (whole entry): T1 sequence (P08842 whole entry)

[10] = Metabolic stability in human liver S9 fraction assessed as intrinsic clearance measured upto 60 mins in presence of NADPH by LC-MS/MS analysis; assay type: ADME, subcellular; conditions: read-out: CLH
Steryl-sulfatase [11] = molecular target: T1, Steryl-sulfatase; assay: Irreversible inhibition of human STS expressed in human T47D cells using [3H]E1S as substrate preincubated for 2 hr followed by substrate addition measured after 24 hrs in presence of E1S by HPLC analysis; assay type: cell-based
HEK293 = assay: Cytotoxicity against HEK293 cells assessed as cell growth inhibition by measuring lethal concentration measured after 72 hrs by MTT assay; assay type: functional, Homo sapiens
HepG2 = assay: Cytotoxicity against human HepG2 cells assessed as cell growth inhibition by measuring lethal concentration measured after 48 hrs by MTT assay; assay type: functional
[12] = molecular target: T5, Aryl hydrocarbon receptor (Homo sapiens, UniProt P35869); assay: Activation of AhR in human HepG2 cells assessed as increase in CYP1A1 activity at 3.16 uM measured after 48 hrs by fluorescence based analysis; assay type: cell-based; conditions: hepg2, 48 h
T5 sequence (P35869 whole entry): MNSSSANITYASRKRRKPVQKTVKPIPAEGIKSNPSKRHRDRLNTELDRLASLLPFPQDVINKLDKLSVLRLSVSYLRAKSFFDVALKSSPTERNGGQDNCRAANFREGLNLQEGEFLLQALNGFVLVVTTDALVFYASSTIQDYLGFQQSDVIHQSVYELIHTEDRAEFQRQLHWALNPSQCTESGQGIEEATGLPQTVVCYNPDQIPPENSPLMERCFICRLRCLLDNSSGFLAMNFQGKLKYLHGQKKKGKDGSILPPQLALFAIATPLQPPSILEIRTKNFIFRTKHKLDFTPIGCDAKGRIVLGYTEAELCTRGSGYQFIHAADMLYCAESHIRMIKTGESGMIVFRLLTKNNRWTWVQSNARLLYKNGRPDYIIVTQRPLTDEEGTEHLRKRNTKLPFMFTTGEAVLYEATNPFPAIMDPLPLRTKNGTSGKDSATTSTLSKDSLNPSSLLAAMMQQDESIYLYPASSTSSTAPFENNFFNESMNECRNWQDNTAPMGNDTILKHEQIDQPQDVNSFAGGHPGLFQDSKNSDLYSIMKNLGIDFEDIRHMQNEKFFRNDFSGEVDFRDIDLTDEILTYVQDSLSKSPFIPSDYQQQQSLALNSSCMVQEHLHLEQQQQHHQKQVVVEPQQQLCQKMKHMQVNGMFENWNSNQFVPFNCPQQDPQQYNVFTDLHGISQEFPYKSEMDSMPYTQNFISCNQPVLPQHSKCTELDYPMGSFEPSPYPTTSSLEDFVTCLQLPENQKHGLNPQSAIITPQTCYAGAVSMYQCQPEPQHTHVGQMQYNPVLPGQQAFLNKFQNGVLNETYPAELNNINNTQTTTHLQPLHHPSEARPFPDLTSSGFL

[13] = Observed Cmax in C57BL/6 mouse at 50 mg/kg, sc administered as single dose measured upto 24 hrs by HPLC-MS/MS analysis; assay type: ADME, organism-based; parameters: time < 24 hrs, dose 50 mg/kg, route sc; conditions: in vivo
[14] = Drug concentration in C57BL/6 mouse at 50 mg/kg, sc administered as single dose measured after 24 hrs by HPLC-MS/MS analysis; assay type: ADME, organism-based; conditions: in vivo, read-out: Drug uptake
[15] = Half life in C57BL/6 mouse at 50 mg/kg, sc administered as single dose measured after 24 hrs by HPLC-MS/MS analysis; assay type: ADME, organism-based; conditions: in vivo
[16] = AUC(0 to 24 hrs) in C57BL/6 mouse at 50 mg/kg, sc administered as single dose measured after 24 hrs by HPLC-MS/MS analysis; assay type: ADME, organism-based; parameters: time 24 hrs, dose 50 mg/kg, route sc; conditions: in vivo
[17] = Lipophilicity, logD of compound at pH 7.4; assay type: physicochemical; conditions: buffer
[18] = Aqueous solubility of compound in PBS measured after 1 to 24 hrs; assay type: physicochemical; conditions: time 1-24 hrs
[19] = Oral bioavailability in C57BL/6 mouse at 50 mg/kg administered as single dose measured after 24 hrs by HPLC-MS/MS analysis; assay type: ADME, organism-based; conditions: in vivo
[20] = Cmax in C57BL/6 mouse at 50 mg/kg, sc administered as single dose ever day measured after 2 hrs by HPLC-MS/MS analysis; assay type: ADME, organism-based; parameters: dose 50 mg/kg, time 2 hrs, route sc; conditions: in vivo
[21] = Cmin in C57BL/6 mouse at 50 mg/kg, sc administered as single dose ever day measured after 24 hrs by HPLC-MS/MS analysis; assay type: ADME, organism-based; conditions: in vivo, read-out: Cmin

Structure (SMILES) | IC50 (Steryl-sulfatase [1]) [nM] | half-life [3] [min] | half-life [4] [min] | Ratio IC50 (Homo sapiens [5]) | IC50 [6] [nM] | IC50 [7] [nM] | IC50 [8] [nM] | microsomal CLint [10] [µL/min/mg] | also measured
NS(=O)(=O)Oc1ccc(-c2ccc(C(=O)c3c(F)ccc(O)c3F)s2)cc1Cl | 15 | < 5 | < 5 | 33 |  |  |  |  | Ratio IC50 (Homo sapiens [2]): 36
Cc1cc(-c2ccc(C(=O)N(C)c3cccc(OS(N)(=O)=O)c3)o2)cc(C)c1O | 92 |  |  | 36 | 80 | 180 | 6400 |  | 
Cc1cc(-c2ccc(C(=O)N(C)c3cccc(OS(N)(=O)=O)c3C)o2)cc(C)c1O |  |  |  |  | 58 |  |  |  | inhibition [9]: < 10%
Cc1ccccc1N(C)C(=O)c1ccc(-c2cc(C)c(O)c(C)c2)o1 |  | 38 | 19 | 570 | 2.9 |  |  | 18.2 | Ratio IC50 (Homo sapiens [2]): 563; t1/2 ([3]; s9, 1 h, 1 h): 38.1 min; t1/2 ([4]; s9, 1 h, 1 h): 19.1 min; inhibition [9]: < 10%
O=C(c1ccc(-c2ccc(O)cc2)s1)c1c(F)ccc(O)c1F |  | < 5 |  |  |  |  |  |  | Ratio IC50 (Homo sapiens [2]): 24
Cc1ccc(OS(N)(=O)=O)cc1N(C)C(=O)c1ccc(-c2cc(C)c(O)c(C)c2)o1 | 450 | 19.3 | 28.5 | 275 | 3.2 | 16 | 4400 | 35.9 | IC50 (Steryl-sulfatase [11]): 460 nM; LC20 (HEK293): <=38 uM; LC20 (HepG2): 28000 nM; Activity [12]: Not Active; Cmax [13]: 517 nM; concentration at 24 h [14]: 49 nM; half-life [15]: 129 min; AUC(0-t) at 24 h [16]: 1900 ng·h/mL; logD [17]: 2.68; solubility [18]: 20 µM (≈ 8.61 µg/mL)
Cc1cc(OS(N)(=O)=O)c(Cl)cc1N(C)C(=O)c1ccc(-c2cc(C)c(O)c(C)c2)o1 | 76 | 35.6 | 22.5 | 110 | 53 | 68 | 7500 | 19.4 | IC50 (Steryl-sulfatase [11]): 79 nM; LC20 (HEK293): <=27 uM; LC20 (HepG2): 31000 nM; Cmax [13]: 400 nM; concentration at 24 h [14]: 62 nM; half-life [15]: 169 min; AUC(0-t) at 24 h [16]: 1900 ng·h/mL; logD [17]: 2.75; solubility [18]: 20 µM (≈ 9.3 µg/mL)
Cc1cc(-c2ccc(C(=O)N(C)c3ccc(OS(N)(=O)=O)c(Cl)c3)o2)cc(C)c1O | 38 |  |  | 6 | 88 | 400 | 2400 |  | 
Cc1cc(OS(N)(=O)=O)ccc1N(C)C(=O)c1ccc(-c2cc(C)c(O)c(C)c2)o1 | 400 | 85.2 | 56.1 | 145 | 11 | 43 | 6200 | 8.2 | IC50 (Steryl-sulfatase [11]): 420 nM; LC20 (HEK293): <=31 uM; LC20 (HepG2): 23000 nM; Activity [12]: Not Active; Cmax [13]: 2820 nM; concentration at 24 h [14]: 797 nM; half-life [15]: 229 min; AUC(0-t) at 24 h [16]: 11600 ng·h/mL; logD [17]: 2.2; solubility [18]: 40 µM (≈ 17.2 µg/mL); bioavailability [19]: 1.5%; Cmax [20]: 2350 nM; concentration at 24 h [21]: 800 nM
Cc1cc(-c2ccc(C(=O)N(C)c3ccc(OS(N)(=O)=O)c(F)c3)o2)cc(C)c1O | 83 |  |  | 6 | 140 | 500 | 3200 |  | 
O=c1ccc2ccc(O)cc2o1 [UMBELLIFERONE] |  |  |  |  |  |  |  | 139 | 
Cc1cc(-c2ccc(C(=O)N(C)c3c(C)cccc3OS(N)(=O)=O)o2)cc(C)c1O |  |  |  |  | 140 |  |  |  | inhibition [9]: < 10%; Activity [12]: Not Active
Cc1cc(-c2ccc(C(=O)N(C)c3ccc(OS(N)(=O)=O)cc3)o2)cc(C)c1O | 150 |  |  | 18 | 110 | 430 | 7700 |  | 
C[C@]12CC[C@H]3[C@@H](CCC4=CC(=O)CC[C@@]43C)[C@@H]1CC[C@@H]2O [TESTOSTERONE] |  |  |  |  |  |  |  | 74.5 | 
